From patent publication US20240285971A1, “Intratumoral Alpha-Emitter Radiation in Combination with Vasculature Inhibitors” (priority 2021, published 2024)

Test system: Glioblastoma Multiforme (GBM) xerographs, U87 cells
Assay: DaRT with systemic BEV on U87 GBM xenografts, BEV started five days post seed insertion (FIG. 3)
Format: in vivo, athymic nude mice
Details: U87 intracutaneous flank tumors; single seed in tumor; BEV or IgG 5 mg/kg i.p., 3 doses per week for 3 weeks, from five days post seed insertion; compared with other groups
Description: In the experiment, the efficacy of DaRT with a systemic administration of BEV was tested on Glioblastoma Multiforme (GBM) xerographs. U87 cells were intracutaneously inoculated in a total of 5·10^6 cells per mouse (in a volume of 100 μl) to the flank of athymic nude mice. The tumors were allowed to grow to an average size of 5-6 mm (longest diameter) for 9 days, when either a single DaRT or inert (non-radioactive control) seed was inserted to the middle of each tumor. Five days post seed insertion, each mouse received an i.p (intraperitoneal) administration of either IgG (control antibody) or BEV. This administration included 3 doses per week (5 mg/kg each) for 3 consecutive weeks (a total of 9 doses). The mice were divided to 4 treatment groups as follows: • a. Inert+Control IgG (untreated control); • b. Inert+BEV (Bev as a monotherapy); • c. DaRT+Control IgG (DaRT as a monotherapy); • d. DaRT+BEV (The combined modality)
Tumor volumes were monitored 3 times per week, along with radioactivity measurement using a Geiger counter to confirm that the DaRT seeds are present in the tumor.

## Bevacizumab
  tumor growth / tumor volume: moderate but significant attenuation in tumor growth
